Holding throughout (format): functional
Experiment [1] is described as follows: Cytotoxicity against human SK-MEL-5 cells assessed as cell growth at 10 uM after 2 days by SRB assay relative to control. The following applies: SK-MEL-5, 48 h, read-out: Activity. A general note: In SRB staining, fixed cells bind dye roughly in proportion to their protein.
Experiment [2] in a line: Cytotoxicity against human A549 cells assessed as cell growth at 10 uM after 2 days by SRB assay relative to control. The following applies: A549, 48 h, read-out: Activity.
Experiment [3] is described as follows: Cytotoxicity against human PC3 cells assessed as cell growth at 10 uM after 2 days by SRB assay relative to control. The following applies: PC-3, 48 h, read-out: Activity.
Experiment [4] can be described thus: Cytotoxicity against human HeLa cells assessed as reduction in cell viability cell at 300 uM after 24 hrs by MTT assay. (In general: Tetrazolium assays rely on reduction of a dye to a coloured formazan, in cell work by metabolically active cells.)
A short description of experiment [5]: Cytotoxicity against human KM12 cells assessed as cell growth at 10 uM after 2 days by SRB assay relative to control. The following applies: KM12, 48 h, read-out: Activity.
The nature of experiment [6]: Cytotoxicity against human SF295 cells assessed as cell growth at 10 uM after 2 days by SRB assay relative to control. The following applies: SF-295, 48 h, read-out: Activity.
Experiment [7] in a line: Cytotoxicity against human SK-MEL-28 cells assessed as cell growth at 10 uM after 2 days by SRB assay relative to control. The following applies: SK-MEL-28, 48 h, read-out: Activity.
Experiment [8] in a line: Cytotoxicity against human MALME-3M cells assessed as cell growth at 10 uM after 2 days by SRB assay relative to control. The following applies: 48 h, read-out: Activity.
Experiment [9] can be described thus: Cytotoxicity against human LOXIMVI cells assessed as cell growth at 10 uM after 2 days by SRB assay relative to control. The following applies: LOX IMVI, 48 h, read-out: Activity.
Experiment [10] is described as follows: Cytotoxicity against human A498 cells assessed as cell growth at 10 uM after 2 days by SRB assay relative to control. The following applies: A498, 48 h, read-out: Activity.
Experiment [11] can be described thus: Cytotoxicity against human TK10 cells assessed as cell growth at 10 uM after 2 days by SRB assay relative to control. Conditions: TK-10, 48 h, read-out: Activity.
Experiment [12] is described as follows: Cytotoxicity against human UO31 cells assessed as cell growth at 10 uM after 2 days by SRB assay relative to control. The following applies: UO-31, 48 h, read-out: Activity.
Experiment [13] is described as follows: Cytotoxicity against human BT549 cells assessed as cell growth at 10 uM after 2 days by SRB assay relative to control. Conditions: BT-549, 48 h, read-out: Activity.
The nature of experiment [14]: Cytotoxicity against human RXF393 cells assessed as cell growth at 10 uM after 2 days by SRB assay relative to control. The following applies: RXF 393, 48 h, read-out: Activity.
Experiment [15] is described as follows: Cytotoxicity against human SF539 cells assessed as cell growth at 10 uM after 2 days by SRB assay relative to control. The following applies: SF-539, 48 h, read-out: Activity.
Experiment [16] in a line: Cytotoxicity against human OVCAR3 cells assessed as cell growth at 10 uM after 2 days by SRB assay relative to control. Conditions: OVCAR-3, 48 h, read-out: Activity.
The nature of experiment [17]: Cytotoxicity against human DU145 cells assessed as cell growth at 10 uM after 2 days by SRB assay relative to control. Conditions: DU-145, 48 h, read-out: Activity.

Usually inhibition stands for the change of the read-out against control, counted positive when it falls.

Regarding `Nc1c(N[C@H]2C=C[C@@H](CO)C2)c(=O)c1=O`, the growth at 10 µM came to 104% in [1]; 97.9% in experiment [2]; 103% in experiment [3]; 122% in [5]; 128% in [6]; 128% in experiment [7]. Further, the growth at 10 µM in experiment [8] came out at 100%; in experiment [9], 96.4%; in experiment [10], 114%; in experiment [11], 115%; in [12], 84.6%; in [13] it was 115%. Moreover, the growth at 10 µM is 143% in [14] and 98.3% in [15]. For the same compound, the inhibition at 300 µM in experiment [4] amounted to 50%.

Regarding `O=c1c(O)c(N[C@H]2C=C[C@@H](CO)C2)c1=O`, the growth at 10 µM in [1] stood at 106%; in experiment [2], 108%; in [3], 110%; in experiment [5] it was 116%; in [6], 73.5%; in experiment [16], 122%. Moreover, the growth at 10 µM in [7] was 140%; in experiment [8], 115%; in [9] it was 117%; in experiment [11], 132%; in experiment [12] it was 103%; in experiment [17], 120%. In addition, the values for the growth at 10 µM in experiment [14] and in [15] were 166% and 114%, respectively.

With `COc1c(N[C@H]2C=C[C@@H](CO)C2)c(=O)c1=O`, the growth at 10 µM in experiment [1] is 103%; in experiment [2], 97.8%; in [3] it was 101%; in experiment [5] it was 87.7%; in experiment [6] it was 118%; in [16], 105%. Besides, the growth at 10 µM worked out at 125% in experiment [7]; 109% in [8]; 97.8% in experiment [9]; 105% in experiment [10]; 105% in [11]; 88.3% in experiment [12]. Besides, the growth at 10 µM in [13] came out at 110%; in [17], 117%; in experiment [14], 126%; in [15], 101%.

The record behind these values is ChEMBL document CHEMBL3871297, “Squarate-based carbocyclic nucleosides: Syntheses, computational analyses and anticancer/antiviral evaluation” (2017).
